According to patent US20210379046A1, “Methods of Treating Diseases Using Kinase Modulators” (Memorial Sloan Kettering Cancer Center, priority 2018, published 2021):

What was measured:
[1] = tested on: TPC1 cells; experiment: Mass spectrometry of eluted HLA class I presented peptides, TPC1 cells; assay type: cell-based, human
Protocol: After 72 hrs, cells were harvested, washed, lysed. The lysate was run through an activated Sepharose-CNBr column coupled to the W6/32 antibody to bind HLA-A,B,C from the cell. The peptides bound by those HLAs and captured on the column were then eluted and mass spectrometry was run on those peptides.
Immunopurification affinity columns were prepared as described previously (Bassani-Sternberg et al., 2015, Mol Cell Proteomics 14(3):658-673). In brief, 40 mg of Cyanogen bromide-activated-Sepharose® 4B (Sigma-Aldrich, Cat #C9142) was activated with 1 mM hydrochloric acid (Sigma-Aldrich, Cat #320331) for 30 min. Subsequently, 0.5 mg of W6/32 antibody (BioXCell, BE0079; RRID: AB 1107730) was coupled to sepharose in presence of binding buffer (150 mM sodium chloride, 50 mM sodium bicarbonate, pH 8.3; sodium chloride: Sigma-Aldrich, Cat #S9888, sodium bicarbonate: Sigma-Aldrich, Cat #56014) for at least 2 hours at room temperature. Sepharose was blocked for 1 h with glycine (Sigma-Aldrich, Cat #410225). Columns were equilibrated with PBS for 10 min. […]. Afterwards, cells were lysed in 1 ml 1% CHAPS (Sigma-Aldrich, Cat #C3023) in PBS, supplemented with 1 tablet of protease inhibitors (cOmplete, Cat #11836145001) for 1 hour at 4° C. This lysate was spun down for 1 hour at 20,000 g at 4° C. Supernatant was run over the affinity column through peristaltic pumps at 1 ml/min overnight at 4° C. Affinity columns were washed with PBS for 15 min, run dry, and HLA complexes subsequently eluted three times with 200 μl 1% trifluoracetic acid (TFA, Sigma/Aldrich, Cat #02031). For separation of HLA ligands from their HLA complexes tC18 columns (Sep-Pak tC18 1 cc VacCartridge, 100 mg Sorbent per Cartridge, 37-55 μm Particle Size, Waters, Cat #WAT036820) were prewashed with 80% acetonitrile (ACN, Sigma-Aldrich, Cat #34998) in 0.1% TFA and equilibrated with two washes of 0.1% TFA. Samples were loaded, washed again with 0.1% TFA and eluted in 400 μl 30% ACN in 0.1% TFA. Sample volume was reduced by vacuum centrifugation for mass spectrometry analysis.
Samples were analyzed by a high resolution/high accuracy LC-MS/MS (Lumos Fusion, Thermo Fisher). Peptides were desalted using ZipTips (Sigma Millipore, Cat. #ZTC18S008) according to manufactures instructions and concentrated using vacuum centrifugation prior to being separated using direct loading onto a packedin-emitter C18 column (75 um ID/12 cm, 3 μm particles, Nikkyo Technos Co., Ltd. Japan). The gradient was delivered at 300 nl/min increasing linear from 2% Buffer B (0.1% formic acid in 80% acetonitrile)/98% Buffer A (0.1% formic acid) to 30% Buffer B/70% Buffer A, over 70 minutes. MS and MS/MS were operated at resolutions of 60,000 and 30,000, respectively. Only charge states 1, 2 and 3 were allowed. 1.6 Th was chosen as the isolation window and the collision energy was set at 30%. For MS/MS, the maximum injection time was 100 ms with an AGC of 50,000.
Mass spectrometry data was processed using Byonic software (version 2.7.84, Protein Metrics, PaloAlto, Calif.) through a custom-built computer server equipped with 4 Intel Xeon E5-4620 8-core CPUs operating at 2.2 GHz, and 512 GB physical memory (Exxact Corporation, Freemont, Calif.). Mass accuracy for MS1 was set to 10 ppm and to 20 ppm for MS2, respectively. Digestion specificity was defined as unspecific and only precursors with charges 1, 2, and 3 and up to 2 kDa were allowed. Protein FDR was disabled to allow complete assessment of potential peptide identifications. Oxidization of methionine, N-terminal acetylation, phosphorylation of serine, threonine and tyrosine were set as variable modifications for all samples. All samples were searched against the UniProt Human Reviewed Database (20,349 entries, uniprot.org, downloaded June 2017). […]

[2] = tested on: TPC1 cells; experiment: Flow cytometry of cell surface HLA and checkpoint ligands on TPC1 cells; assay type: cell-based, human; conditions: TPC1, 100 nM, 72 hours
Protocol: (§1) If adherent cells, they were seeded one day before treatment.

[3] = tested on: TPC1 cells; experiment: RNA-seq of TPC1 cells after RET inhibitor treatment; assay type: cell-based, human; conditions: TPC1, 72 hours
Protocol: Purified polyA mRNA was subsequently fragmented, and first and second strand cDNA synthesis performed using standard Illumina mRNA TruSeq library preparation protocols. Double stranded cDNA was subsequently processed for TruSeq dual-index Illumina library generation. For sequencing, pooled multiplexed libraries were run on a HiSeq 2500 machine on RAPID mode. Approximately 10 million 76 bp single-end reads were retrieved per replicate condition. Resulting RNA-Seq data was analyzed by removing adaptor sequences using Trimmomatic, aligning sequencing data to GRCh37.75(hg19) with STAR, and genome wide transcript counting using HTSeq to generate a RPKM matrix of transcript counts. This RPKM matrix was further log (log 2) transformed and normalized per gene to obtain the Z-score. Differential gene expression was analyzed by looking at fold changes between experimental conditions.

[4] = tested on: Karpas 299 cells; experiment: Flow cytometry of cell surface HLA and checkpoint ligands on Karpas 299 cells; assay type: cell-based, human
Protocol: as §1

[5] = tested on: Karpas 299 tumors; experiment: Karpas 299 subcutaneous tumors in mice, tumor HLA and PD-L1 by flow cytometry; assay type: in vivo
Protocol: Female NSG (NOD.Cg-Prkdc^scidIl2rg^tm1Wj1/SzJ) and NRG (NOD.Cg-Rag1^tm1MomIl2rg^tm1Wj1/SzJ) mice were purchased from the Jackson Laboratory or MSKCC breeding facility at 5-10 weeks old. For RET and ALK experiments, 2.5-6×10^6 tumor cells were subcutaneously injected into the flank of mice and when tumors were palpable, mice were treated daily with drug or vehicles through oral gavage. At day 7, tumors were harvested and flow cytometry was run to determine effect of inhibitors on HLA and PD-L1 on the tumor cells.
The highly immunodeficient NRG (NOD-Rag1null IL2rgnull) mice were subcutaneously injected with 2.5×10^6 luciferase tagged TPC1 cells in their right flank. […] Afterwards, cells were immediately harvested and stained with antibodies against HLA-A*02:01 and HLA-ABC.
All animal experiments were conducted in accordance with and the approval of the MSKCC IACUC (Institutional Animal Care and Use Committee) protocols. Female NSG (NOD. Cg-Prkdc^scidIl2rg^tm1Wj1/SzJ) and NRG (NOD.Cg-Rag1^tm1MomIl2rg^tm1Wj1/SzJ) mice were purchased from the Jackson Laboratory at 5-10 weeks old. For experiments in vivo with RET and ALK, 2.5-6×10^6 tumor cells in PBS were subcutaneously injected into the flank of mice. When tumors were palpable (2-3 mm), mice were treated daily with drugs or vehicles through oral gavage of drugs in 200 ul of water. At day 4 or 7, tumors were harvested and flow cytometry was conducted to determine the effect of inhibitors on HLA and PD-L1 on the tumor cells. […] TPC1 cells were transduced with luciferase and GFP on an SFG vector and this allowed gating of the tumor cells in flow cytometry.

[6] = tested on: SUP-M2 cells; experiment: PD-L1 levels in vitro on SUP-M2 cells
Protocol: 5×10^4 cells were seeded in a 12 well plate and treated with drug for 72 hrs. Adherent cells were seeded one day before treatment. At 72 hrs, cells were harvested, washed with PBS and incubated on ice with appropriate fluorophore conjugated antibodies diluted in FACS buffer for 1 hr. Gating strategy: Cells were then washed and incubated 30 min with a viability dye (propidium iodide at 1 ug/mL) and live cells only were analyzed by on a Guava flow cytometer with FlowJo software.

[7] = tested on: pERK in Karpas 299 cells; experiment: Western blot of pERK in Karpas 299 cells; assay type: cell-based, human; conditions: Karpas 299, 3 hrs
Protocol: (§2) Cells were seeded in a 60 mm dish or 6 well plates. After the appropriate time point, cells were harvested and lysed and protein was quantified by a Lowry assay (Bio-Rad DC Protein Assay; #5000116). Protein levels were normalized and run on SDS PAGE gels (Bio-Rad). Protein was transferred to a nitrocellulose membrane using semi-dry transfer. Membrane was blocked and incubated with respective antibodies. When needed, secondary antibodies with HRP were incubated for 1 hr.
(§3) Cells were seeded in a 60 mm dish or 6 well plates. After the appropriate time point, cells were harvested, lysed in RIPA buffer (Thermo Instruments) and protein concentration was quantified by a Lowry assay (using the Bio-Rad DC Protein Assay; #5000116 on a Spectramax device from Molecular Devices). Protein loading levels were equalized per lane and separated on SDS gels (Bio-Rad). Protein was transferred to a nitrocellulose membrance using semi-dry transfer (BioRad). Membranes were blocked with Omniblock (American Bio) and incubated with respected antibodies. When needed, secondary antibodies with HRP were incubated for 1 hr.

[8] = tested on: pERK in SUDHL-1 cells; experiment: Western blot of pERK in SUDHL-1 cells; assay type: cell-based, human; conditions: SUDHL-1, 3 hrs
Protocol: as §2, §3

[9] = tested on: SUDHL-1 cells; experiment: Flow cytometry of cell surface HLA on SUDHL-1 cells; assay type: cell-based, human; conditions: SUDHL-1, 72 hrs, increasing concentrations
Protocol: as §1

[10] = tested on: Karpas299 cells; experiment: Luminex cytokine secretion, Karpas299 cells; assay type: cell-based, human; conditions: Karpas299, 100 nm alectinib
Protocol: Supernatant media were harvested after treatment and analyzed by the Luminex device (Luminex Corporation, Austin, Tex.) for relevant cytokine secretion. […] On the left side of each panel is data after 24 hours. On the right side of each panel is data after 48 hours. […] The data points shown in this figure are in pairs for each condition. The data point pairs for each time point are, from left to right: DMSO, Rux, Alec, IFNg, and IFNg+Rux.

[11] = TPC1, 10 nM AST487 or 100 nM cabozantinib
[12] = Karpas 299 tumors, daily oral gavage

COc1cc2nccc(Oc3ccc(NC(=O)C4(C(=O)Nc5ccc(F)cc5)CC4)cc3)c2cc1OC [cabozantinib]
runs TEIPP peptide was found in (n = 3) ([1]; ALFSFVTAL (SEQ ID NO: 11)): 0 | runs TEIPP peptide was found in (n = 3) ([1]; FLGPWPAAS (SEQ ID NO: 12)): 1 | runs TEIPP peptide was found in (n = 3) ([1]; FLSELQYYL (SEQ ID NO: 13)): 0 | runs TEIPP peptide was found in (n = 3) ([1]; FLYPFLSHL (SEQ ID NO: 14)): 0 | runs TEIPP peptide was found in (n = 3) ([1]; ILEYLTAEV (SEQ ID NO: 15)): 0 | runs TEIPP peptide was found in (n = 3) ([1]; LLALAAGLAV (SEQ ID NO: 16)): 0 | runs TEIPP peptide was found in (n = 3) ([1]; LLLDVPTAAV (SEQ ID NO: 17)): 1 | runs TEIPP peptide was found in (n = 3) ([1]; LLLSAEPVPA (SEQ ID NO: 18)): 0 | runs TEIPP peptide was found in (n = 3) ([1]; LLWGRQLFA (SEQ ID NO: 19)): 0 | runs TEIPP peptide was found in (n = 3) ([1]; LSEKLERI (SEQ ID NO: 20)): 0 | runs TEIPP peptide was found in (n = 3) ([1]; LTLLGTLWGA (SEQ ID NO: 21)): 0 | runs TEIPP peptide was found in (n = 3) ([1]; SVLWLGALGL (SEQ ID NO: 22)): 0 | runs TEIPP peptide was found in (n = 3) ([1]; TLLGASLPA (SEQ ID NO: 23)): 0 | new peptides (only peptides found in all three runs counted) [1, 11]: 492 | unique peptides not present in the DMSO group (found in at least one run) [1, 11]: 1642 | unique ligands presented ([1]; TPC1, 10 nM AST487 or 100 nM cabozantinib, three runs pooled, DMSO 4211): 4850 | increase in unique peptides vs DMSO ([1]; TPC1, three runs pooled): 15% | unique HLA ligands detected in all 3 runs ([1]; TPC1, DMSO 195): 639 | runs TEIPP peptide was found in (n = 3) ([1]; VIIKPLVWV (SEQ ID NO: 24)): 0 | runs TEIPP peptide was found in (n = 3) ([1]; VLAVFIKAV (SEQ ID NO: 25)): 0 | runs TEIPP peptide was found in (n = 3) ([1]; VLLDHLSLA (SEQ ID NO: 26)): 0 | increase in surface HLA (pan-HLA) [2]: ~4 fold | increase in surface HLA-A*02 [2]: 4 fold | genes upregulated at least two-fold [3]: 50

CCc1cc2c(cc1N1CCC(N3CCOCC3)CC1)C(C)(C)c1[nH]c3cc(C#N)ccc3c1C2=O [alectinib]
PD-L1 levels in vitro ([4]; Karpas 299): dramatic decreases in PD-L1 were seen in vitro | surface HLA-E levels ([4]; Karpas 299): did not change | cell surface HLA-A,B,C ([4]; Karpas 299, 72 hrs, increasing concentrations): upregulates cell surface HLA | HLA-A02 (BB7-FITC) surface level ([4]; Karpas299, alectinib 100 nM, 72 hours): led to upregulation of HLA | drop of PD-L1 ([5]; Karpas 299 tumors in NSG mice): approximately 75% | tumor PD-L1 levels in vivo [5, 12]: PD-L1 decreased with increasing doses | tumor cell surface HLA-A,B,C in vivo [5, 12]: increased modestly in a dose-dependent manner | PD-L1 levels in vitro [6]: dramatic decreases in PD-L1 were seen in vitro | pERK levels [7]: shut down pERK expression | pERK levels [8]: shut down pERK expression | cell surface HLA-A,B,C [9]: upregulates cell surface HLA | IFNα, IFNγ, IL4 secretion [10]: had no effect on IFNα, IFNγ, IL4 | IL6 and TNFα secretion [10]: reduced IL6 and TNFα secretion
